The values that follow come from ChEMBL document CHEMBL3638739, “Medical composition for treatment or prophylaxis of glaucoma” (2014).

This test deals with Prostaglandin E2 receptor EP2 subtype (Homo sapiens, UniProt P43116). The test is described as follows: Binding Assay: Measurement of EP2 receptor binding affinity was carried out according to the method of Abramovitz et al. (Biochimica et Biophysica Acta, 1483, 285 (2000)). […] The membrane fraction was recovered on glass fiber filter paper (GF/B, available from Whatman PLC) using a cell harvester (M30R, available from Brandel Inc.), and after washing with a buffer solution (10 mM MES-KOH (pH 6.0), 10 mM MgCl2), radioactivity was measured with a liquid scintillation analyzer (2000CA, available from Packard). The format is cell membranes. The following applies: hek293.
Chain of Prostaglandin E2 receptor EP2 subtype (P43116 whole entry): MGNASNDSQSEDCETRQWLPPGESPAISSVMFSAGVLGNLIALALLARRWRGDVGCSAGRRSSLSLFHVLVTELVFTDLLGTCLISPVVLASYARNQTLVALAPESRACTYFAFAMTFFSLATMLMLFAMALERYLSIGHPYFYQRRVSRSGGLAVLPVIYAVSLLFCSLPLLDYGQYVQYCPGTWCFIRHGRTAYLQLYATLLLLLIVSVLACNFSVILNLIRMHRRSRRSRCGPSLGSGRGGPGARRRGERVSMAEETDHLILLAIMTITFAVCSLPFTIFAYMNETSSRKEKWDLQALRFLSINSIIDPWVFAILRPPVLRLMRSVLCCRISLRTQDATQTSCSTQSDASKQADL

The Ki is the dissociation constant of the complex between target and ligand, obtained from inhibition or displacement. As for `O=C(O)c1[nH]c(-c2ccoc2)cc1-c1ccc(O)cc1`, the inhibition constant (Ki) was 2.8 nM.
With `COC(=O)c1ccc(CNC(=O)c2[nH]c(-c3cccs3)cc2-c2ccc(F)cc2)nc1`, the inhibitory constant (Ki) worked out at 3.8 nM.
Turning to `O=C(NO)c1ccc(CNC(=O)c2[nH]c(-c3ccoc3)cc2-c2ccc(F)cc2)cc1`, the inhibition constant Ki was 1.1 nM.
To `O=C(NO)c1ccc(CNC(=O)c2[nH]c(-c3cccs3)cc2-c2ccc(O)cc2)cc1` belongs 13 nM; to `O=C(NO)c1ccc(CNC(=O)c2[nH]c(-c3ccc(O)cc3)cc2-c2ccoc2)cc1`, 9.4 nM.
For `COc1ccc(-c2cc(-c3ccccc3)[nH]c2C(=O)Nc2ccc(C(=O)NO)o2)cc1`, the inhibition constant Ki was found to be 3.1 nM.
To `O=C(NO)c1ccc(CNC(=O)c2[nH]c(-c3ccccc3)cc2-c2ccc(F)cc2)o1` belongs 1.5 nM.
